Results published in patent publication US20250145594A1, “MODULATORS OF THE INTEGRATED STRESS PATHWAY” (Calico Life Sciences LLC, priority 2020, published 2025).

Tested on: ATF4 luciferase reporter in HEK293T cells
Assay: ATF4-Luc assay (in vitro model of VWMD)
Type: cell-based, human
Details: Homo sapiens, HEK-293T, 7 h, HEK293T cells carrying the ATF4 luciferase reporter, 1 μg/mL tunicamycin, One Glo luminescence
Method in brief: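 Stable HEK293T line expressing firefly luciferase behind the human ATF4 5′-UTR, treated with 1 μg/mL tunicamycin plus compound for 7 hours. Luminescence read with One Glo; EC50 determined.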

Row | Structure (SMILES) | EC50
1 | O=C(CO[C@H]1C[C@@H](OC(F)(F)F)C1)NC12CCC(NC(=O)[C@H]3C[C@@H](O)c4cc(C(F)(F)F)ccc4O3)(CC1)C[C@@H]2O [Compound 460, (2R,4R)-4-hydroxy-N-[(3S)-3-hydroxy-4-(2-{[(1s,3R)-3-(trifluoromethoxy)cyclobutyl]oxy}acetamido)bicyclo[2.2.2]octan-1-yl]-6-(trifluoromethyl)-3,4-dihydro-2H-1-benzopyran-2-carboxamide] | < 10 nM
2 | O=C(NC12CC(n3cc(N4CC[C@@H](OC(F)(F)F)C4)cn3)(C1)C2)[C@H]1C[C@@H](O)c2cc(C(F)(F)F)ccc2O1 [Compound 579, (2R,4R)-4-hydroxy-N-(3-{4-[(3R)-3-(trifluoromethoxy)pyrrolidin-1-yl]-1H-pyrazol-1-yl}bicyclo[1.1.1]pentan-1-yl)-6-(trifluoromethyl)-3,4-dihydro-2H-1-benzopyran-2-carboxamide] | < 10 nM
3 | O=C(NC12CC(n3cc(C[C@H]4C[C@@H](OC(F)(F)F)C4)cn3)(C1)C2)[C@H]1C[C@@H](O)c2cc(Cl)ccc2O1 [Compound 531, (2R,4R)-6-chloro-4-hydroxy-N-[3-(4-{[(1s,3R)-3-(trifluoromethoxy)cyclobutyl]methyl}-1H-pyrazol-1-yl)bicyclo[1.1.1]pentan-1-yl]-3,4-dihydro-2H-1-benzopyran-2-carboxamide] | 10 to 50 nM
4 | O=C(NC12CC(n3cc([C@@H]4CC[C@@H](OC(F)(F)F)C4)nn3)(C1)C2)[C@H]1C[C@@H](O)c2cc(Cl)ccc2O1 (mixture of isomers) [Compound 538, (2R,4R)-6-chloro-4-hydroxy-N-(3-{4-[(1RS,3RS)-3-(trifluoromethoxy)cyclopentyl]-1H-1,2,3-triazol-1-yl}bicyclo[1.1.1]pentan-1-yl)-3,4-dihydro-2H-1-benzopyran-2-carboxamide] | < 10 nM
5 | O=C(NC12CCC(n3cc(-c4ccc(C(F)(F)F)cn4)cn3)(C1)C2)[C@H]1C[C@@H](O)c2cc(Cl)c(F)cc2O1 [Compound 627, (2R,4R)-6-chloro-7-fluoro-4-hydroxy-N-(4-{4-[5-(trifluoromethyl)pyridin-2-yl]-1H-pyrazol-1-yl}bicyclo[2.1.1]hexan-1-yl)-3,4-dihydro-2H-1-benzopyran-2-carboxamide] | < 10 nM
6 | O=C(NC12CC(n3cc([C@H]4C[C@@H](OC(F)F)C4)nn3)(C1)C2)[C@H]1C[C@@H](O)c2cc(Cl)ccc2O1 [Compound 544, (2R,4R)-6-chloro-N-(3-{4-[(1s,3S)-3-(difluoromethoxy)cyclobutyl]-1H-1,2,3-triazol-1-yl}bicyclo[1.1.1]pentan-1-yl)-4-hydroxy-3,4-dihydro-2H-1-benzopyran-2-carboxamide] | < 10 nM
7 | O=C(NC12CC(n3cc(-c4ccc(C(F)F)cn4)cn3)(C1)C2)[C@H]1C[C@@H](O)c2cc(Cl)ccc2O1 [Compound 568, (2R,4R)-6-chloro-N-(3-{4-[5-(difluoromethyl)pyridin-2-yl]-1H-pyrazol-1-yl}bicyclo[1.1.1]pentan-1-yl)-4-hydroxy-3,4-dihydro-2H-1-benzopyran-2-carboxamide] | < 10 nM
8 | O=C(NC12CC(n3cc(-c4ccc(C(F)(F)F)cn4)cn3)(C1)C2)[C@H]1C[C@H](O)c2cc(Cl)ccc2O1 [Compound 546, (2R,4S)-6-chloro-4-hydroxy-N-(3-{4-[5-(trifluoromethyl)pyridin-2-yl]-1H-pyrazol-1-yl}bicyclo[1.1.1]pentan-1-yl)-3,4-dihydro-2H-1-benzopyran-2-carboxamide] | 10 to 50 nM
9 | O=C(NC12CC(n3cc(CCCOC(F)(F)F)cn3)(C1)C2)[C@H]1C[C@@H](O)c2cc(C(F)(F)F)ccc2O1 [Compound 513, (2R,4R)-4-hydroxy-N-(3-{4-[3-(trifluoromethoxy)propyl]-1H-pyrazol-1-yl}bicyclo[1.1.1]pentan-1-yl)-6-(trifluoromethyl)-3,4-dihydro-2H-1-benzopyran-2-carboxamide] | < 10 nM
10 | O=C(NC12CC(n3cnc(C(=O)N4CC(COC(F)(F)F)C4)c3)(C1)C2)[C@H]1C[C@@H](O)c2cc(Cl)ccc2O1 [Compound 368, (2R,4R)-6-chloro-4-hydroxy-N-[3-(4-{3-[(trifluoromethoxy)methyl]azetidine-1-carbonyl}-1H-imidazol-1-yl)bicyclo[1.1.1]pentan-1-yl]-3,4-dihydro-2H-1-benzopyran-2-carboxamide] | 10 to 50 nM
11 | O=C(NC12CC(n3cc(-c4ccc(OC(F)(F)F)cn4)cn3)(C1)C2)[C@H]1C[C@@H](O)c2cc(Cl)ccc2O1 [Compound 308, (2R,4R)-6-chloro-4-hydroxy-N-(3-{4-[5-(trifluoromethoxy)pyridin-2-yl]-1H-pyrazol-1-yl}bicyclo[1.1.1]pentan-1-yl)-3,4-dihydro-2H-1-benzopyran-2-carboxamide] | < 10 nM
12 | O=C(COc1ccc(Cl)c(F)c1)NC12CC(c3ccnc(OCCCOC(F)(F)F)c3)(C1)C2 [Compound 453, 2-(4-chloro-3-fluorophenoxy)-N-(3-{2-[3-(trifluoromethoxy)propoxy]pyridin-4-yl}bicyclo[1.1.1]pentan-1-yl)acetamide] | < 10 nM
13 | O=C(NC12CC(n3cc(OCCCOC(F)(F)F)cn3)(C1)C2)[C@H]1C[C@@H](O)c2cc(Cl)ccc2O1 [Compound 431, (2R,4R)-6-chloro-4-hydroxy-N-(3-{4-[3-(trifluoromethoxy)propoxy]-1H-pyrazol-1-yl)bicyclo[1.1.1]pentan-1-yl)-3,4-dihydro-2H-1-benzopyran-2-carboxamide] | < 10 nM
14 | O=C(NC12CC(n3cc(O[C@H]4C[C@@H](COC(F)(F)F)C4)cn3)(C1)C2)[C@H]1C[C@@H](O)c2cc(Cl)ccc2O1 [Compound 589, (2R,4R)-6-chloro-4-hydroxy-N-{3-[4-({(1s,3S)-3-[(trifluoromethoxy)methyl]cyclobutyl}oxy)-1H-pyrazol-1-yl]bicyclo[1.1.1]pentan-1-yl}-3,4-dihydro-2H-1-benzopyran-2-carboxamide] | 10 to 50 nM
15 | O=C(COc1ccc(C(F)(F)F)c(F)c1)NC12CC(n3cc(C(=O)N4CC[C@H](OC(F)(F)F)C4)cn3)(C1)C2 [Compound 621, 2-[3-fluoro-4-(trifluoromethyl)phenoxy]-N-(3-{4-[(3S)-3-(trifluoromethoxy)pyrrolidine-1-carbonyl]-1H-pyrazol-1-yl}bicyclo[1.1.1]pentan-1-yl)acetamide] | < 10 nM
16 | O=C(NC12CC(n3cc(O[C@H]4C[C@H](COC(F)(F)F)C4)cn3)(C1)C2)[C@H]1C[C@@H](O)c2cc(Cl)ccc2O1 [Compound 588, (2R,4R)-6-chloro-4-hydroxy-N-{3-[4-(((1r,3R)-3-[(trifluoromethoxy)methyl]cyclobutyl}oxy)-1H-pyrazol-1-yl]bicyclo[1.1.1]pentan-1-yl)-3,4-dihydro-2H-1-benzopyran-2-carboxamide] | 10 to 50 nM
17 | CC(F)(F)CCCOc1cnn(C23CC(NC(=O)[C@H]4C[C@@H](O)c5cc(Cl)ccc5O4)(C2)C3)c1 [Compound 521, (2R,4R)-6-chloro-N-(3-{4-[(4,4-difluoropentyl)oxy]-1H-pyrazol-1-yl}bicyclo[1.1.1]pentan-1-yl)-4-hydroxy-3,4-dihydro-2H-1-benzopyran-2-carboxamide] | 10 to 50 nM
18 | O=C(CO[C@H]1C[C@@H](OC(F)(F)F)C1)NC12CC(NC(=O)[C@H]3C[C@H](O)c4cc(C(F)(F)F)c(F)cc4O3)(C1)C2 [Compound 643, (2R,4S)-7-fluoro-4-hydroxy-N-[3-(2-{[(1s,3S)-3-(trifluoromethoxy)cyclobutyl]oxy}acetamido)bicyclo[1.1.1]pentan-1-yl]-6-(trifluoromethyl)-3,4-dihydro-2H-1-benzopyran-2-carboxamide] | < 10 nM
19 | O=C(NC12CC(n3cc(OCCOC(F)(F)F)cn3)(C1)C2)[C@@H]1C[C@@H](O)c2cc(Cl)ccc2O1 [Compound 631, (2S,4R)-6-chloro-4-hydroxy-N-(3-{4-[2-(trifluoromethoxy)ethoxy]-1H-pyrazol-1-yl}bicyclo[1.1.1]pentan-1-yl)-3,4-dihydro-2H-1-benzopyran-2-carboxamide] | 10 to 50 nM
20 | O=C(CO[C@H]1C[C@@H](OC(F)(F)F)C1)NC12CC(NC(=O)[C@H]3CC(O)c4cc(Cl)ccc4O3)(C1)C2 (single isomer, unassigned) [Compound 293] | < 10 nM
21 | O=C(N[C@H]1CC[C@H](C(=O)N2CC(c3ccc(C(F)(F)F)cc3)C2)CC1)[C@H]1C[C@@H](O)c2cc(Cl)ccc2O1 [Compound 323, (2R,4R)-6-chloro-4-hydroxy-N-[trans-4-{3-[4-(trifluoromethyl)phenyl]azetidine-1-carbonyl}cyclohexyl]-3,4-dihydro-2H-1-benzopyran-2-carboxamide] | < 10 nM
22 | O=C(CO[C@H]1C[C@@H](OC(F)(F)F)C1)N[C@@H]1C[C@@H]2C[C@H]1C[C@H]2NC(=O)[C@@H]1C[C@@H](O)c2cc(Cl)ccc2O1 [Compound 393, (2S,4R)-6-chloro-4-hydroxy-N-[(1S,2R,4S,5R)-5-(2-{[cis-3-(trifluoromethoxy)cyclobutyl]oxy}acetamido)bicyclo[2.2.1]heptan-2-yl]-3,4-dihydro-2H-1-benzopyran-2-carboxamide] | 50 to 250 nM
23 | COc1ncc(OCC(=O)NC23CC(c4ccnc(OCCCOC(F)(F)F)c4)(C2)C3)cn1 [Compound 452, 2-[(2-methoxypyrimidin-5-yl)oxy]-N-(3-{2-[3-(trifluoromethoxy)propoxy]pyridin-4-yl}bicyclo[1.1.1]pentan-1-yl)acetamide] | 250 to 500 nM
24 | O=C(NC12CC(n3cc(-c4ccc(C(F)(F)F)cn4)cn3)(C1)C2)[C@H]1CNc2cc(Cl)ccc2O1 [Compound 572, (2R)-6-chloro-N-(3-{4-[5-(trifluoromethyl)pyridin-2-yl]-1H-pyrazol-1-yl}bicyclo[1.1.1]pentan-1-yl)-3,4-dihydro-2H-1,4-benzoxazine-2-carboxamide] | < 10 nM
